Assays:
Assay in all cases: relative viability (nuclei count vs DMSO), 5 days (fraction); higher = more cells survive
Crenolanib + Pemetrexed = compound: CC1(COc2ccc3c(c2)ncn3-c2ccc3cccc(N4CCC(N)CC4)c3n2)COC1 [Crenolanib] + Nc1nc2[nH]cc(CCc3ccc(C(=O)N[C@@H](CCC(=O)O)C(=O)O)cc3)c2c(=O)[nH]1 [Pemetrexed] (partner 0.2 µM)
Procedure, shortened: (§1)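 Lung cancer cell lines were pin-tool dosed in 1536-well plates on the day after seeding, with either a lone drug or a fixed anchor-drug dose plus five library-drug doses (not always all listed) in √10 steps. Nuclei were counted on 4× images after 5 days. Relative viability is the ratio of treated-well to vehicle-well nuclei counts, with each value a median of duplicate plates.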

Crenolanib + AZD7762 = compound: CC1(COc2ccc3c(c2)ncn3-c2ccc3cccc(N4CCC(N)CC4)c3n2)COC1 [Crenolanib] + NC(=O)Nc1cc(-c2cccc(F)c2)sc1C(=O)N[C@H]1CCCNC1 [AZD7762] (partner 0.2 µM)
Procedure, shortened: as §1

Tivantinib + Phenformin = compound: O=C1NC(=O)[C@@H](c2cn3c4c(cccc24)CCC3)[C@@H]1c1c[nH]c2ccccc12 [Tivantinib] + N=C(N)NC(=N)NCCc1ccccc1 [Phenformin] (partner 250 µM)
Procedure, shortened: as §1

Crenolanib + Tozasertib = compound: CC1(COc2ccc3c(c2)ncn3-c2ccc3cccc(N4CCC(N)CC4)c3n2)COC1 [Crenolanib] + Cc1cc(Nc2cc(N3CCN(C)CC3)nc(Sc3ccc(NC(=O)C4CC4)cc3)n2)n[nH]1 [Tozasertib] (partner 0.1 µM)
Procedure, shortened: as §1

| Cell Line | relative viability (Crenolanib + Pemetrexed; first compound 0.01 µM) | relative viability (Crenolanib + Pemetrexed; first compound 0.03162 µM) | relative viability (Crenolanib + Pemetrexed; first compound 0.1 µM) | relative viability (Crenolanib + Pemetrexed; first compound 0.3162 µM) | relative viability (Crenolanib + Pemetrexed; first compound 1 µM) | relative viability (Crenolanib + AZD7762; first compound 0.01 µM) | relative viability (Crenolanib + AZD7762; first compound 0.03162 µM) | relative viability (Crenolanib + AZD7762; first compound 0.1 µM) | relative viability (Crenolanib + AZD7762; first compound 0.3162 µM) | relative viability (Crenolanib + AZD7762; first compound 1 µM) | relative viability (Tivantinib + Phenformin; first compound 0.01 µM) | relative viability (Tivantinib + Phenformin; first compound 0.03162 µM) | relative viability (Tivantinib + Phenformin; first compound 0.1 µM) | relative viability (Tivantinib + Phenformin; first compound 0.3162 µM) | relative viability (Crenolanib + Tozasertib; first compound 0.01 µM) | relative viability (Crenolanib + Tozasertib; first compound 0.03162 µM) | relative viability (Crenolanib + Tozasertib; first compound 0.1 µM) | relative viability (Crenolanib + Tozasertib; first compound 0.3162 µM) | relative viability (Crenolanib + Tozasertib; first compound 1 µM) |
| --- | --- | --- | --- | --- | --- | --- | --- | --- | --- | --- | --- | --- | --- | --- | --- | --- | --- | --- | --- |
| NCI-H1993 | 0.606 | 0.591 | 0.549 | 0.559 | 0.544 | 0.843 | 0.802 | 0.889 | 0.974 | 0.688 | 0.446 | 0.503 | 0.514 | 0.605 | 0.639 | 0.588 | 0.572 | 0.579 | 0.543 |
| NCI-H2085 | – | 0.88 | 0.878 | 0.936 | 0.949 | – | 0.983 | 0.997 | 0.972 | 1 | 0.774 | 0.639 | 0.699 | 0.519 | 0.895 | 0.841 | 0.726 | 0.754 | 0.816 |
| NCI-H2087 | 0.719 | 0.7 | 0.684 | 0.555 | 0.675 | 1.33 | 1.18 | 1.39 | 1.6 | 1.34 | 0.446 | 0.456 | 0.473 | 0.472 | 0.219 | 0.277 | 0.239 | 0.262 | 0.254 |
| NCI-H2126 | 0.725 | 0.678 | 0.694 | 0.715 | 0.605 | 1.07 | 1.05 | 0.927 | 1.05 | 0.973 | 0.527 | 0.504 | 0.532 | 0.47 | 0.87 | 0.909 | 0.807 | 0.699 | 0.745 |
| NCI-H2170 | 0.366 | 0.266 | 0.276 | 0.286 | 0.271 | 0.941 | 0.852 | 0.897 | 0.934 | 0.852 | 0.429 | 0.437 | 0.401 | – | 0.747 | 0.857 | 0.69 | 0.648 | 0.769 |
| NCI-H2342 | 0.749 | 0.72 | 0.691 | 0.771 | 0.754 | 0.607 | 0.475 | 0.475 | 0.532 | 0.484 | 0.579 | 0.671 | 0.568 | 0.495 | 0.546 | 0.496 | 0.682 | 0.483 | 0.454 |
